A short description of data set [1]: physchem. The format is physicochemical. The method, then:
An Orion 710A pH-meter equipped with a Metrohm combined electrode (type 6.0234.100) and a Metrohm 665 Dosimat burette were used for the UV–vis titrations at 25.0 ± 0.1 °C. Ionic strength of 0.10 M (KCl) was used to keep the activity coefficients constant. The titrations were performed with carbonate-free KOH solution of known concentration (0.10 M) with 30% (v/v) DMSO content. […] The average water ionization constant (pKw) is 14.54 ± 0.05 in the 30% (v/v) DMSO/H2O mixture. Argon was always passed over the solutions during the titrations. An Agilent Cary 8454 diode array spectrophotometer was used to record the UV–vis spectra at an interval of 200–800 nm. The path length was 2 cm. Spectrophotometric titrations were performed using a 0.1 M KOH titrant solution with 30% (v/v) DMSO on samples with 30% (v/v) DMSO containing HCl, KCl and the ligand at 20 μM concentration in the pH range 2.0–12.5 in the absence or in the presence of 1 or 0.5 equiv. Cu(II) ions. Proton dissociation constants (Ka) of the TSC ligands, the overall stability constants (β) of the Cu(II) complexes and the UV–vis spectra of the individual species were calculated by the computer program PSEQUAD [41] as was done in our previous works.

Data set [2] is described as follows: direct redox reaction of the Cu(II) complexes with GSH (UV–vis, anaerobic). The settings on record: Cu(II) complex (25 µM) of the named ligand with GSH (1.25 mM), pH 7.4, anaerobic, 30% (v/v) DMSO/H2O, 25.0 °C. The format is physicochemical. An outline of the steps:
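Complexes mixed with GSH or ascorbic acid at 25.0 ± 0.1 °C, pH 7.40 (10 mM HEPES, 0.1 M KCl) in a sealed tandem cuvette, both compartments argon-deoxygenated 10 min before mixing. UV–vis absorbance followed at complex λmax until stable; single-exponential fit, kobs taken as slope of ln(A/A0) versus t.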

With `C[C@]12CC[C@@H]3c4cc(C=NNC(N)=S)c(O)cc4CC[C@H]3[C@@H]1CCC2O` (some centres unmarked) [estradiol-TSC, 2-((3,17 Dihydroxy-estra-1,3,5(10)-triene-2-yl)methylene)Hydrazine-1-carbothioamide], the pKa in data set [1] turned out to be 9.23 ± 0.03. The same molecule displayed a kobs in data set [2] of 0.07 ± 0.03 min⁻¹.

The term pKa denotes the negative logarithm of the acid dissociation constant. Low values mean a group that gives up its proton readily, high ones a group that holds its proton tightly.

The record behind these values is article PMC9822434, “Estradiol-Based Salicylaldehyde (Thio)Semicarbazones and Their Copper Complexes with Anticancer, Antibacterial and Antioxidant Activities” (Molecules, 2022).
